Experimental data taken from US20120029054A1, “RNA Interference Mediated Inhibition of GATA Binding Protein 3 (GATA3) Gene Expression Using Short Intefering Nucleic Acid (siNA)” (Merck Sharp & Dohme Corp., priority 2009, published 2012).
[invAb] = inverted abasic unit; m = 2'-O-methyl; r = 2'-OH (RNA); f = 2'-fluoro

How the values were obtained:
GATA3 mRNA [1] = experiment: GATA3 mRNA knock-down (Taqman qRT-PCR) after RNAiMax transfection of human MCF7 cells; screen and IC50 dose response; type: cell-based; conditions: 10 nM siNA, MCF7 cells, 24 hrs, average of 3 experiments
Procedure: MCF7 (human; ATCC cat# HTB-22): Cells were cultured at 37° C. in the presence of 5% CO2 and grown in Eagle's Minimum Essential medium with supplemented with fetal bovine serum at a final concentration of 10% and 100 μg/mL of streptomycin and 100 U/mL penicillin.
(§1) Cells were plated in all wells of a tissue-culture treated, 96-well plate at a final count of 5000 cells/well in 100 μL of the appropriate culture media. The cells were cultured for 24 hours after plating at 37° C. in the presence of 5% CO2.
(§2) After 24 hours, complexes containing siNA and RNAiMax were created as follows: A solution of RNAiMax diluted 33-fold in OPTI-MEM was prepared. In parallel, solutions of the siNAs for testing were prepared to a final concentration of 120 nM in OPTI-MEM. After incubation of RNAiMax/OPTI-MEM solution at room temperature for 5 min, an equal volume of the siNA solution and the RNAiMax solution were added together for each of the siNAs.
(§3) This solution was incubated at room temperature for 20 minutes. After incubation, 20 uL of the solution was added to each of the relevant wells. The final concentration of siNA in each well was 10 nM and the final volume of RNAiMax in each well was 0.3 ul.
(§4) The time of incubation with the RNAiMax-siNA complexes was 24 hours and there was no change in media between transfection and harvesting, unless otherwise indicated.
(§5) RNA was extracted from a 96-well plate using the TaqMan® Gene Expression Cells-to-CT™ Kit (Cat#4399002) with a modified protocol. Briefly, a 60 uL (1 plate) or 110 uL (2 plates) of the Lysis Solution with DNase I was dispensed into each well of the Lysis Buffer Plate (twin.tec full skirt plate). The lysis buffer and stop plates were stored at 4° C. until the cells were washed.
(§6) The plate was spun at 1100 rpm for 5 minutes. The culture medium was aspirated and discarded from the wells of the culture plate. The lysis was performed automatically using a BioMek FX instrument and method. After the Biomek method was completed, the lysis plate was incubated for 2 min. at room temperature. The lysis plate can be stored for 2 hours at 4° C., or at −20° C. or −80° C. for two months.
(§7) Each well of the reverse transcription plate required 10 uL of 2× reverse transcriptase Buffer, 1 uL of 20× reverse transcription enzyme and 2 uL of nuclease-free water. The reverse transcription master mix was prepared by mixing 2× reverse transcription buffer, 20× reverse transcription enzyme mix, and nuclease-free water. 13 uL of the reverse transcription master mix was dispensed into each well of the reverse transcription plate (semi-skirted). A separate reverse transcription plate was prepared for each cell plate. The plate was loaded onto a Biomek NX or Biomek FX Dual-96 and the Biomek method was run. The program is programmed to automatically added 7 uL of lysate from the cell lysis procedure described above into each well of the reverse transcription plate. The plate is sealed and spun on a centrifuge (1000 rpm for 30 seconds) to settle the contents to the bottom of the reverse transcription plate. The plate is placed in a thermocycler at 37° C. for 60 min, 95° C. for 5 min, and 4° C. until the plate is removed from the thermocycler. Upon removal, if not used immediately, the plate was frozen at −20° C.
(§8) A series of probes and primers were used to detect the various mRNA transcripts of the genes of β-Actin (human cell line only), and of GATA3 and GAPDH in mouse and human cell lines. All Taqman probes and primers for the experiments here-in described were supplied as pre-validated sets by Applied Biosystems, Inc. (see Table 2).
(§9) The assays were performed on an ABI 7900 instrument, according to the manufacturer's instructions. A TaqMan Gene Expression Master Mix (provided in the Cells-to-CT™, Applied Biosystems, Cat #4399002) was used. The PCR reactions were carried out at 50° C. for 2 min, 95° C. for 20 min followed by 40 cycles at 95° C. for 15 secs and 60° C. for 1 min. […]

GATA3 mRNA [2] = experiment: GATA3 mRNA knock-down (Taqman qRT-PCR) after RNAiMax transfection of mouse RAG cells; type: cell-based; conditions: 10 nM siNA, 24 hrs, average of 2 experiments
Procedure: RAG (murine; ATCC cat# CCL-142): Cells were cultured at 37° C. in the presence of 5% CO2 and grown in Eagle's Minimum Essential medium with supplemented with 10% of fetal bovine serum, 100 μg/mL of streptomycin, and 100 U/mL penicillin.
as §1, §2, §3, §4, §5, §6, §7, §8, §9

Row | Substance | % KD Human (GATA3 mRNA [1]) [%] | % KD Mouse (GATA3 mRNA [2]) [%]
1 | 30245-DC: GATA3 siNA duplex, site 1829: sense B GccAuccAGccuGuccuuu TTB (SEQ 43), antisense AAAGGAcAGGcuGGAuGGcUU (SEQ 44) (sense GCCAUCCAGCCUGUCCUUUTT; antisense AAAGGACAGGCUGGAUGGCUU; chemistry not fully specified) | 24 ± 2 | 20 ± 7
2 | 30246-DC: GATA3 siNA duplex, site 1883: sense B GGGuuAGAGcccuGcucGA TTB (SEQ 45), antisense UCGAGcAGGGcucuAAcccUU (SEQ 46) (sense GGGUUAGAGCCCUGCUCGATT; antisense UCGAGCAGGGCUCUAACCCUU; chemistry not fully specified) | −6 ± 19 | −1 ± 2
3 | 30247-DC: GATA3 siNA duplex, site 763: sense B GGGccAcGGuGcAGAGGuA TTB (SEQ 47), antisense UACcucuGcAccGuGGcccUU (SEQ 48) (sense GGGCCACGGUGCAGAGGUATT; antisense UACCUCUGCACCGUGGCCCUU; chemistry not fully specified) | −7 ± 17 | −25 ± 14
4 | 30248-DC: GATA3 siNA duplex, site 643: sense B cGGGccucAGccAcuccuA TTB (SEQ 49), antisense UAGGAGuGGcuGAGGcccGUU (SEQ 50) (sense CGGGCCUCAGCCACUCCUATT; antisense UAGGAGUGGCUGAGGCCCGUU; chemistry not fully specified) | 18 ± 4 | 1 ± 5
5 | 30249-DC: GATA3 siNA duplex, site 673: sense B cGcAGuAcccGcuGccGGA TTB (SEQ 51), antisense UCCGGcAGcGGGuAcuGcGUU (SEQ 52) (sense CGCAGUACCCGCUGCCGGATT; antisense UCCGGCAGCGGGUACUGCGUU; sense: DNA at AGT, 2'-fluoro at CU, [invAb] at 5' end, 3' end, backbone not given here; antisense: sugars from the 5' end rrrmmfmmfmmmfmffmfmmm, backbone not given here) | 1 ± 19 | −12 ± 2
6 | 30250-DC: GATA3 siNA duplex, site 727: sense B GcAAccAcGucccGcccuA TTB (SEQ 53), antisense UAGGGcGGGAcGuGGuuGcUU (SEQ 54) (sense GCAACCACGUCCCGCCCUATT; antisense UAGGGCGGGACGUGGUUGCUU; chemistry not fully specified) | 6 ± 9 | −9 ± 8
7 | 30251-DC: GATA3 siNA duplex, site 735: sense B GucccGcccuAcuAcGGAA TTB (SEQ 55), antisense UUCcGuAGuAGGGcGGGAcUU (SEQ 56) (sense GUCCCGCCCUACUACGGAATT; antisense UUCCGUAGUAGGGCGGGACUU; sense: DNA at AGT, 2'-fluoro at CU, [invAb] at 5' end, 3' end, backbone not given here; antisense: sugars from the 5' end rrrfmfmmfmmmmfmmmmfmm, backbone not given here) | −127 ± 32 | −30 ± 18
8 | 30252-DC: GATA3 siNA duplex, site 1084: sense B cccGGcAGGAcGAGAAAGA TTB (SEQ 57), antisense UCUuucucGuccuGccGGGUU (SEQ 58) (sense CCCGGCAGGACGAGAAAGATT; antisense UCUUUCUCGUCCUGCCGGGUU; sense: DNA at AGT, 2'-fluoro at C, [invAb] at 5' end, 3' end, backbone not given here; antisense: sugars from the 5' end rrrfffffmffffmffmmmmm, backbone not given here) | −3 ± 2 | 0 ± 4
9 | 30253-DC: GATA3 siNA duplex, site 644: sense B GGGccucAGccAcuccuAc TTB (SEQ 59), antisense GUAGGAGuGGcuGAGGcccUU (SEQ 60) (sense GGGCCUCAGCCACUCCUACTT; antisense GUAGGAGUGGCUGAGGCCCUU; chemistry not fully specified) | −1 ± 11 | −6 ± 1
10 | 30254-DC: GATA3 siNA duplex, site 619: sense B GGcAGcAcccGGAcAcGcA TTB (SEQ 61), antisense UGCGuGuccGGGuGcuGccUU (SEQ 62) (sense GGCAGCACCCGGACACGCATT; antisense UGCGUGUCCGGGUGCUGCCUU; chemistry not fully specified) | −27 ± 15 | 6 ± 5
11 | 30255-DC: GATA3 siNA duplex, site 1085: sense B ccGGcAGGAcGAGAAAGAG TTB (SEQ 63), antisense CUCuuucucGuccuGccGGUU (SEQ 64) (sense CCGGCAGGACGAGAAAGAGTT; antisense CUCUUUCUCGUCCUGCCGGUU; sense: DNA at AGT, 2'-fluoro at C, [invAb] at 5' end, 3' end, backbone not given here; antisense: sugars from the 5' end rrrffffffmffffmffmmmm, backbone not given here) | 26 ± 11 | 40 ± 3
12 | 30256-DC: GATA3 siNA duplex, site 719: sense B cGGucAAGGcAAccAcGuc TTB (SEQ 65), antisense GACGuGGuuGccuuGAccGUU (SEQ 66) (sense CGGUCAAGGCAACCACGUCTT; antisense GACGUGGUUGCCUUGACCGUU; chemistry not fully specified) | −19 ± 5 | 1 ± 6
13 | 30257-DC: GATA3 siNA duplex, site 1830: sense B ccAuccAGccuGuccuuuG TTB (SEQ 67), antisense CAAAGGAcAGGcuGGAuGGUU (SEQ 68) (sense CCAUCCAGCCUGUCCUUUGTT; antisense CAAAGGACAGGCUGGAUGGUU; chemistry not fully specified) | −3 ± 3 | −4 ± 5
14 | 30258-DC: GATA3 siNA duplex, site 990: sense B cAcGccAGcccGcAccucu TTB (SEQ 69), antisense AGAGGuGcGGGcuGGcGuGUU (SEQ 70) (sense CACGCCAGCCCGCACCUCUTT; antisense AGAGGUGCGGGCUGGCGUGUU; chemistry not fully specified) | 0 ± 4 | −12 ± 4
15 | 30259-DC: GATA3 siNA duplex, site 713: sense B cAucGAcGGucAAGGcAAc TTB (SEQ 71), antisense GUUGccuuGAccGucGAuGUU (SEQ 72) (sense CAUCGACGGUCAAGGCAACTT; antisense GUUGCCUUGACCGUCGAUGUU; chemistry not fully specified) | 36 ± 2 | 60 ± 1
